Test results taken from the SangsterLogP compilation.

Experiment: method code SF, from DOI: 10.1016/j.ejps.2012.10.019, PMID: 23131797
Conditions: pH 2.0

| logD | Compound |
| --- | --- |
| 2.98 | Cc1ccc(OCCC(=O)N2CCN(S(=O)(=O)c3cccs3)CC2)cc1 |
| 3.47 | Cc1cccc(C)c1NC(=O)Cn1cc(C(=O)C2CC2)c2ccccc21 |
| 3.56 | COc1cccc(-n2c(SCc3cc(=O)n4ccsc4n3)nc3ccccc3c2=O)c1 |
| 3.41 | Cc1cccc(C)c1NC(=O)CNC(=O)C1CCN(S(=O)(=O)c2cccc(Cl)c2Cl)CC1 |

Same assay, conditions: pH 5.0

| logD | Compound |
| --- | --- |
| 5.51 | CSc1nc2c(C#N)c(SC)nn2c(-c2ccc(Cl)cc2)c1C#N |
| 4.64 | CCOc1ccc(-n2c(SCC(=O)NC3CC3)nc3sc4c(c3c2=O)CCC4)cc1 |
| 4.14 | Cc1cccc(C(=O)Nc2ccc(NC(=O)c3ccccc3)c(C)c2)c1 |
| 4.69 | CCc1ccc(-n2nnnc2SCC(=O)Nc2ccc(C(C)=O)cc2)cc1 |
| 2.56 | COc1ccc(N2C(=O)Cc3ccccc3C2=O)cc1 |
| 3.39 | COC(=O)c1cccc(NC(=O)CCN2C(=O)c3ccccc3C2=O)c1 |
| 4.82 | Cc1cccc(C)c1NC(=O)CSc1nnnn1-c1ccc(OC(F)(F)F)cc1 |
| 4.45 | COc1ccc(C(C)=O)cc1COC(=O)c1cc(Cl)ccc1Cl |
| 4.73 | CCOc1ccccc1OCC(=O)Nc1ccc2ccccc2c1 |
| 3.18 | O=C(COC(=O)c1ccccc1F)Nc1ccccc1 |
| 4.17 | N#CCSc1nc2ccccc2c(=O)n1-c1ccc(OC(F)F)cc1 |
| 4.41 | CC1=CC(C(F)(F)F)(C(F)(F)F)C(C#N)=C(N)N1c1ccc(C(N)=O)cc1 |
| 4.43 | CCn1ccc(CN(C)C(=O)c2ccccc2COc2ccc(F)cc2F)n1 |
| 4.55 | Cc1ccc(-c2cc(C(F)F)n3ncc(C(=O)N4CCSCC4)c3n2)cc1 |
| 3.53 | CCOC(=O)c1cnn(C(=O)c2cnn(-c3ccc([N+](=O)[O-])cc3)c2C(F)(F)F)c1N |
| 4.24 | COc1ccc(-c2nnc(SCc3cc(=O)oc4ccc5ccccc5c34)n2N)cc1 |
| 5.01 | Cc1ccc(S(=O)(=O)N2CCCN(S(=O)(=O)c3ccc(C)cc3C)CC2)c(C)c1 |
| 5.89 | CCCc1ccc(OCc2ccc(C(=O)Nc3ccccc3C(=O)OC)o2)c(OC)c1 |
| 4.85 | Nn1c(SCC(=O)Nc2ccccc2-c2ccccc2)nnc1-c1ccc(OC(F)F)cc1 |

Continued, compound first:

| Compound | logD |
| --- | --- |
| Cc1ccccc1-c1noc(CCl)n1 | 3.3 |
| COc1ccc(CNC(=O)C2CCCC2)cc1 | 2.6 |
| CC1(C)OC(=O)C(=Cc2ccc([N+](=O)[O-])s2)C(=O)O1 | 3.04 |
| CCCCCC(=O)NC1(CCC)CCCC1 | 4.28 |
| Clc1ccc(CSc2ncccn2)cc1Cl | 4.33 |
| CCOC(=O)C(C)(C)N(CCC(C)C)S(=O)(=O)c1ccc([N+](=O)[O-])cc1 | 4.75 |
| O=C(NC1CC1)c1ccc(COc2c(F)c(F)cc(F)c2F)o1 | 3.54 |
| O=C(OCC(=O)N1CCCC1)c1c2ccccc2cc2ccccc12 | 4.09 |
| COc1cc2c(cc1OC)CN(C(=O)c1cccc(S(=O)(=O)N3CCCCC3)c1)CC2 | 4.2 |
| CC(C)NC(=O)COC(=O)c1ccc(S(=O)(=O)N2CCCCCC2)cc1 | 3.78 |
| O=C(c1c(F)cccc1F)N1CCCC1 | 1.88 |
| COc1ccc(S(=O)(=O)N(CC(=O)Nc2cccc([N+](=O)[O-])c2)C2CCCCC2)cc1Cl | 5.48 |
| Cc1c(C(=O)Nc2ccc(S(=O)(=O)N3CCCCCC3)cc2)oc2ccc(F)cc12 | 5.68 |
| COc1ccc(N2C3=C(C(=O)CC(C)(C)C3)C(c3ccc4c(c3)OCO4)C3=C2CC(C)(C)CC3=O)cc1 | 5.72 |
| CSc1scc(-c2cccs2)c1C#N | 3.69 |
| Cn1ncc(Cl)c1-c1nc(-c2nonc2N)no1 | 2.77 |
| O=C(OCC(=O)N(C1CCCCC1)C1CCCCC1)c1ccc(Cl)nc1 | 4.99 |
| CCCC(=O)OCC(=O)Nc1ccc(F)cc1Cl | 3.02 |
| N#Cc1c(SCC(=O)OCc2ccccc2)nsc1SCC(=O)OCc1ccccc1 | 5.6 |
| CC(C)OCCCNC(=O)C(=O)NCc1ccc(C(C)C)cc1 | 4.57 |

| Compound | logD |
| --- | --- |
| O=C(NCCc1ccccc1)c1ccc(Cl)cc1 | 3.71 |
| FC(F)(F)c1ccc(-n2cc3ccccc3n2)cc1 | 4.42 |
| O=C1CC(c2cccc([N+](=O)[O-])c2)CC2=C1C(c1ccco1)N(C(=O)C(F)(F)F)c1ccccc1N2 (configuration not stated) | 4.68 |
| O=C(Cn1cc(C(=O)C(F)(F)F)c2cc(Br)ccc21)N1CCCCCC1 | 4.62 |
| O=C(OCC(=O)N1CCC(Cc2ccccc2)CC1)C1CCCCC1 | 4.98 |
| Cc1ccc(N(CCOC(=O)c2ccc(S(=O)(=O)N3CCCCC3)cc2)C2=NS(=O)(=O)c3ccccc32)cc1 | 5.58 |
| N#CCc1nc(-c2ccc3c(c2)OCCCO3)cs1 | 2.68 |
| CCCn1c(=O)c(Br)cn(-c2ccccc2C)c1=O | 2.82 |
| Cn1c2ccccc2n2c3nc(C#N)c(C#N)nc3c(C#N)c12 | 3.61 |
| COC(=O)c1ccc(Br)c(S(=O)(=O)N2CCCCC2)c1 | 3.66 |
| CN(C)S(=O)(=O)c1ccc(C(=O)OC2CCCCC2)cc1 | 4.27 |
| CCCCC(=O)NC1C2CC3CC(C2)CC1C3 (configuration not stated) | 3.8 |
| CCOC(=O)N1CCN(C(=O)/C=C/c2ccc(Cl)c(Cl)c2)CC1 | 4.34 |
| O=C(Nc1ccccc1C(F)(F)F)C1CCC1 | 2.55 |
| COc1ccc(C(=O)OCC(=O)NC2CCCCCCC2)cc1[N+](=O)[O-] | 4.28 |
| O=C(Cn1cc(C(F)(F)F)cc(Cl)c1=O)N1CCN(C(=O)c2ccco2)CC1 | 2.27 |
| CC12CCCC(C(N)=O)(CCC1)C2 | 2.73 |
| Cc1ccc(NC(=O)c2ccc(S(=O)(=O)N3CCOCC3)cc2)c(C(=O)c2ccccc2)c1 | 4.54 |
| O=C1c2ccccc2C(=O)N1c1ccccc1S(=O)C(F)(F)F (configuration not stated) | 3.3 |
| COc1ccc(C=O)cc1COc1c(F)c(F)cc(F)c1F | 4.24 |

Same assay, conditions: pH 6.5

| logD | Compound |
| --- | --- |
| 3.74 | C=CCNC(=O)CSc1nc(C(F)F)cc(-c2cn(C)nc2C)c1C#N |
| 5.47 | O=C(COc1nnc(SCC(=O)c2ccc3c(c2)OCCO3)n1C1Cc2ccccc2C1)c1ccc(F)cc1 |
| 4.92 | O=C(CSc1nc2ccccc2c(=O)n1-c1ccc(Cl)cc1)NC1CCCCC1 |
| 4.14 | Cc1c(C)c(C)c(CSc2nnc(CC#N)n2C)c(C)c1C |
| 4.51 | O=C(CSc1nnc2c3ccccc3n(Cc3ccccc3)c2n1)OCN1C(=O)c2ccccc2C1=O |
| 4.34 | CS(=O)(=O)N(CC(=O)Nc1c(F)cccc1F)c1cc(Cl)c(Cl)cc1Cl |

Further lines, the compound ahead of its results:

| Compound | logD |
| --- | --- |
| N#CC(=Cc1ccc2c(c1)OCO2)C(=O)NCc1cccc(CNC(=O)C(C#N)=Cc2ccc3c(c2)OCO3)c1 | 4.92 |
| CCN(CC)C(=O)c1sc(NC(=O)c2cc(OC)cc(OC)c2)c(C(=O)OC)c1C | 5.47 |
| CC1CCC2(CC1)N=C(c1ccccc1)C(=O)N2CC(=O)Nc1ccc2c(c1)OCCO2 (configuration not stated) | 5.07 |
| COc1cc(C=O)ccc1OS(=O)(=O)c1ccc(F)c(F)c1 | 3.68 |
| CC(C)(C)c1cc(C(F)(F)F)nc(SCCNC(=O)C2CCCCC2)n1 | 5.77 |
| COc1cc(C(=O)COC(=O)CCCOc2ccc(Cl)cc2Cl)cc(OC)c1OC | 5.59 |
| CC(=O)Nc1nc2cc3sc(NC(C)=O)nc3cc2s1 | 3.13 |

Same assay, conditions: pH 7.3

| logD | Compound |
| --- | --- |
| 2.78 | COC(=O)c1cc(OC)c(OC)cc1NC(=O)CSc1nncn1C |
| 4.21 | Cn1c(SCC(=O)NC2CCCCCC2)nnc1-c1ccc(Cl)cc1 |
| 4.49 | CC1CCCC(C)N1C(=O)CSc1nnc(-c2ccco2)n1Cc1ccccc1 (configuration not stated) |
| 4.83 | C=CCn1c(SCC(=O)NCc2ccc(C(=O)OCC)cc2)nc2sc(C)c(C)c2c1=O |
| 1.55 | COc1cccc(Cn2cc(N)cn2)c1 |
| 5.45 | NC(=O)CSc1nc2c(c(=O)n1Cc1ccco1)C1(CCCCC1)Cc1ccccc1-2 |
| 4.87 | COc1ccc(C2CC(=O)C3=C(C2)Nc2ccccc2N(C(=O)C(F)(F)F)C3c2cc(OC)c(OC)c(OC)c2)cc1 (configuration not stated) |
| 2.69 | Cc1cc(Br)ccc1NC(=O)CSc1nnc(N)s1 |
| 3.19 | Cc1cccc(NC(=O)CSc2ccccn2)c1C |
| 3.85 | CCn1c(SCc2nc3c4cnn(C)c4ncn3n2)nnc1-c1cc(C(F)(F)F)n(C)n1 |

Further lines, the compound ahead of its results:

| Compound | logD |
| --- | --- |
| COc1cc(OC)c(C2C3=C(CCCC3=O)Nc3ncnn32)cc1OC (configuration not stated) | 2.19 |
| O=C(c1ccccc1)c1ccc(N2CCN(C(=O)c3c(F)cccc3F)CC2)c(F)c1 | 5.14 |
| O=C(Nc1cccc(-c2cnc3ccccc3n2)c1)c1cccs1 | 4.34 |
| Cc1nc(-c2ccc(Cl)cc2)cs1 | 3.65 |
| C=CCn1c(SCc2ccccc2)nc2ccccc2c1=O | 5.11 |

Same assay, conditions: pH 8.0

| logD | Compound |
| --- | --- |
| 4.15 | Cc1cc(SCC(=O)NCc2ccc3c(c2)OCO3)nc2ccccc12 |

Same assay, conditions: pH 10.0

| logD | Compound |
| --- | --- |
| 3.5 | Cc1ccc(C)n1-c1ccc(-c2ccnc3ncnn23)cc1 |
| 4.41 | Cc1cc(C)c(NC(=O)CSc2nnc(-c3ccc(OC(F)F)cc3)n2N)c(C)c1 |
| 3.92 | Cc1ccc2c(C)nc(Nc3nc4c(c(=O)[nH]3)CCCC4)nc2c1 |
| 2.98 | CCOC(=O)CC1=Nn2c(nnc2-c2cccs2)SC1 |

The remaining lines, values behind:

| Compound | logD |
| --- | --- |
| CCc1noc(-c2[nH]c3ccccc3c2C(=O)C(=O)N(C)C)c1C | 2.68 |
| CC1CN(c2nc3ccccn3c(=O)c2C=C(C#N)C#N)CC(C)O1 (configuration not stated) | 3.24 |

Same assay, conditions: pH 10.5

| logD | Compound |
| --- | --- |
| 4.63 | Nc1cccc2c1C(=O)N(C(=O)c1cc(-c3ccccc3Cl)nc3ccccc13)C2=O |
| 4.64 | O=C(CSc1nnc(-c2ccccc2)n1-c1ccccc1)N1CCN(C(=O)c2ccccc2)CC1 |
| 0.82 | Cc1cc(C)n2nc(SCC(=O)NCCNC(=O)CSc3nc4nc(C)cc(C)n4n3)nc2n1 |
| 5.92 | CCOC(=O)N1CCN(c2nc(C(F)(F)F)nc3c(C)cc(C)cc23)CC1 |
| 2.09 | CCOc1ccc(NC(=O)CN(C)C(=O)c2ccc(C)o2)cc1OCC |
| 4.99 | CC1=NN(c2ccccc2)C(=O)C1Sc1nc(N)c(C#N)c(-c2ccc(C)cc2)c1C#N (configuration not stated) |
| 4.31 | CCc1ccc2nc3c(cc2c1)c(=O)n(-c1ccccc1)c1c3c(=O)n(C)c(=O)n1C |

The next lines start with the compound.

| Compound | logD |
| --- | --- |
| Cc1nc2c(N)nnc(N)c2nc1C | 1.14 |
| Cc1nc(N(C)C)c2sc(=S)n(-c3ccccc3)c2n1 | 3.62 |
| Nc1nc(SCC(=O)N(CCO)CCO)nc2sc3c(c12)CCCC3 | 3.2 |
| COC(=O)CCNc1nc(-c2cccnc2)nc2sc3c(c12)CCCC3 | 4.69 |
| CC(C)(C)c1cc(Cc2ccccc2)n[nH]1 | 4.35 |
| COc1ccc(S(=O)(=O)N2CCCCCC2)cc1C(=O)OCC(=O)c1c(N)n(C)c(=O)n(C)c1=O | 4.59 |
| Cc1cc(C)n(C2=NCCN2S(=O)(=O)c2cc(C(F)(F)F)cc(C(F)(F)F)c2)n1 | 4.7 |
